For one molecule, solubility in methanol results are on record in patent US20050154052A1, “Novel crystalline forms of (s)-citalopram oxalate” (Hetero Drugs Limited, priority 2003, published 2005).

SMILES strings stand for the structures. Where a name gives a salt, the structure may show the parent alone.

This data set in a line: Solubility of (S)-citalopram oxalate in alcohol. The data set is classed as physicochemical. The settings on record: 5 gm in 35 ml of methanol at 25° C. The source says:
According to another aspect of the present invention there is provided a process for preparation of the Form II of (S)-citalopram oxalate. Thus (S)-citalopram oxalate is mixed with an alcohol. (S)-Citalopram oxalate prepared by the process described in, for example, EP 0347066 or the Form I of (S)-citalopram oxalate may be used. The alcohol is either methanol or ethanol or isopropyl alcohol. The solubility of (S)-citalopram oxalate depends on the alcohol used and volume of the alcohol to (S)-citalopram oxalate. For example, 5 gm of (S)-citalopram oxalate is soluble in 35 ml of methanol at 25° C. If (S)-citalopram oxalate is soluble in the conditions of experiment, the Form II of (S)-citalopram oxalate is precipitated from the solution. The techniques such as cooling, partial removal of the solvent, addition of anti-solvent like diisopropyl ether may be used to precipitate the Form II of (S)-citalopram oxalate. If the (S)-citalopram oxalate is insoluble in the alcohol, after mixing (S)-citalopram oxalate and the alcohol the solid is filtered from the contents to obtain Form II of (S)-citalopram oxalate.

As for `CN(C)CCC[C@@]1(c2ccc(F)cc2)OCc2cc(C#N)ccc21` [(S)-citalopram oxalate, 1(S)-[3-(Dimethylamino)propyl]-1-(4-fluorophenyl)-1,3-dihydro-5-isobenzofurancarbonitrile], the solubility in methanol result is “soluble”.
